This note sets out measurements from patent US9611248B2, “Chemical compounds” (Syngenta Participations AG, priority 2013, dated 2017).

Molecules are shown by their SMILES.

The test relates to a variety of test species. Briefly: Post-emergence herbicidal activity. The test is classed as in vivo. Details: key to ABUTH (Abutilon theophrasti) damage score / AMARE (Amaranthus retroflexus) damage score / ALOMY (Alopecurus myosuroides) damage score / ECHCG (Echinochloa crus-galli) damage score / ZEAMX (Zea mays) damage score / SOLNI (Solanum nigrum) damage score: 0 = no damage to plant, 5 = total damage to plant. The settings on record: rate 1000 g/ha, evaluated after 13 days. The procedure: Seeds of a variety of test species were sown in standard soil in pots. After 8 days cultivation (post-emergence) under controlled conditions in a glasshouse (at 24/16° C., day/night; 14 hours light; 65% humidity), the plants were sprayed with an aqueous spray solution derived from the formulation of the technical active ingredient in acetone/water (50:50) solution containing 0.5% Tween 20 (polyoxyethelyene sorbitan monolaurate, CAS RN 9005-64-5). The test plants were then grown in a glasshouse under controlled conditions (at 24/16° C., day/night; 14 hours light; 65% humidity) and watered twice daily. After 13 days, the test was evaluated (5=total damage to plant; 0=no damage to plant, NC=not captured).
Turning to `COC1=C(C)C(=O)N(c2cc(C(F)(F)F)c(C(C)=O)cn2)C1O` (stereo not drawn) [AD2, 1-[5-acetyl-4-(trifluoromethyl)-2-pyridyl]-2-hydroxy-3-methoxy-4-methyl-2H-pyrrol-5-one], the “ABUTH (Abutilon theophrasti) damage score” value (from here on “ABUTH”) was found to be 5, the “ALOMY (Alopecurus myosuroides) damage score” value (“ALOMY” for short) was determined as 5, the “AMARE (Amaranthus retroflexus) damage score” value (“AMARE” below) was 5 and the “ECHCG (Echinochloa crus-galli) damage score” value (shortened to “ECHCG”) was 5. Further, the “SETFA (Setaria faberi) damage score” value is 5 and the “ZEAMX (Zea mays) damage score” value is recorded as 2.

As to `COC1=C(C)C(=O)N(c2nccc(C(F)(F)F)c2C#N)C1O` (stereo not drawn) [AD5], the “ABUTH” value was determined as 5, the “ALOMY” value is reported as 4, the “AMARE” value was determined as 5 and the “ECHCG” value was determined as 4. For the same compound, the “SETFA (Setaria faberi) damage score” value is given as 4 and the “ZEAMX (Zea mays) damage score” value turned out to be 2.

With `COC1=C(C)C(=O)N(c2nccc(C(F)(F)F)c2F)C1O` (stereo not drawn) [AD7], the “ABUTH” value is 5, the “ALOMY” value worked out at 5, the “AMARE” value stood at 5 and the “ECHCG” value is recorded as 5. Moreover, the “SETFA (Setaria faberi) damage score” value is 5 and the “ZEAMX (Zea mays) damage score” value is 3.

Turning to `COC1=C(C)C(=O)N(c2cc(C(F)(F)F)c(OC)cn2)C1O` (stereo not drawn) [AD10, 2-hydroxy-3-methoxy-1-[5-methoxy-4-(trifluoromethyl)-2-pyridyl]-4-methyl-2H-pyrrol-5-one], the “ABUTH” value is 5, the “ALOMY” value is 5, the “AMARE” value is 5 and the “ECHCG” value was 5. The “SETFA (Setaria faberi) damage score” value was 5 and the “ZEAMX (Zea mays) damage score” value was found to be 2.

`CCC/C=C/c1cnc(N2C(=O)C(C)=C(OC)C2O)cc1C(F)(F)F` (stereo not drawn) [AD13]: the “ABUTH” value is recorded as 5, the “ALOMY” value amounted to 5, the “AMARE” value came out at 5 and the “ECHCG” value was 5. Also, the “SETFA (Setaria faberi) damage score” value was 5 and the “ZEAMX (Zea mays) damage score” value turned out to be 1.

Take `COC1=C(C)C(=O)N(c2cc(C(F)(F)F)c(SC)cn2)C1O` (stereo not drawn) [AD14, 2-hydroxy-3-methoxy-4-methyl-1-[5-methylsulfanyl-4-(trifluoromethyl)-2-pyridyl]-2H-pyrrol-5-one]: the “ABUTH” value was determined as 5, the “ALOMY” value stood at 3, the “AMARE” value is listed as 4 and the “ECHCG” value is on record as 5. The “SETFA (Setaria faberi) damage score” value was 5 and the “ZEAMX (Zea mays) damage score” value is reported as 1.

Consider `COC1=C(C)C(=O)N(c2cc(C(F)(F)F)c(C#C[Si](C)(C)C)cn2)C1O` (stereo not drawn) [AD15, 2-hydroxy-3-methoxy-4-methyl-1-[4-(trifluoromethyl)-5-(2-trimethylsilylethynyl)-2-pyridyl]-2H-pyrrol-5-one], for which the “ABUTH” value came to 3, the “ALOMY” value is reported as 3, the “AMARE” value came to 5 and the “ECHCG” value is 4. Moreover, the “SETFA (Setaria faberi) damage score” value was 5 and the “ZEAMX (Zea mays) damage score” value stood at 2.

As to `COC1=C(C)C(=O)N(c2cc(C(C)F)ccn2)C1O` (stereo not drawn) [AD18], the “ABUTH” value was determined as 4, the “ALOMY” value amounted to 3, the “AMARE” value is listed as 1 and the “ECHCG” value was determined as 4. Besides, the “SETFA (Setaria faberi) damage score” value was determined as 1 and the “ZEAMX (Zea mays) damage score” value was determined as 0.

With `C#Cc1cnc(N2C(=O)C(C)=C(OC)C2O)cc1C(F)(F)F` (stereo not drawn) [AD20], the “ABUTH” value is reported as 4, the “ALOMY” value worked out at 4, the “AMARE” value amounted to 5 and the “ECHCG” value was 4. Moreover, the “SETFA (Setaria faberi) damage score” value came to 5 and the “ZEAMX (Zea mays) damage score” value worked out at 0.

On to `COC1=C(C)C(=O)N(c2cc(C(F)(F)F)c(C=C(C)C)cn2)C1O` (stereo not drawn) [AD21, 2-hydroxy-3-methoxy-4-methyl-1-[5-(2-methylprop-1-enyl)-4-(trifluoromethyl)-2-pyridyl]-2H-pyrrol-5-one], for which the “ABUTH” value is given as 5, the “ALOMY” value is 2, the “AMARE” value is reported as 5 and the “ECHCG” value was found to be 5. In addition, the “SETFA (Setaria faberi) damage score” value was 4 and the “ZEAMX (Zea mays) damage score” value turned out to be 0.

Take `COC1=C(C)C(=O)N(c2nccc(C(F)(F)F)c2Br)C1O` (stereo not drawn) [AD25]: the “ABUTH” value was 1, the “ALOMY” value is recorded as 1, the “AMARE” value was found to be 2 and the “ECHCG” value was determined as 1. For the same compound, the “SETFA (Setaria faberi) damage score” value is recorded as 2 and the “ZEAMX (Zea mays) damage score” value was 1.

Turning to `COC1=C(C)C(=O)N(c2cc(C(F)(F)F)c(C#N)cn2)C1O` (stereo not drawn) [AD26, 6-(2-hydroxy-3-methoxy-4-methyl-5-oxo-2H-pyrrol-1-yl)-4-(trifluoromethyl)pyridine-3-carbonitrile], the “ABUTH” value came to 5, the “ALOMY” value was 4, the “AMARE” value was 5 and the “ECHCG” value worked out at 5. The “SETFA (Setaria faberi) damage score” value was determined as 4 and the “ZEAMX (Zea mays) damage score” value came out at 2.

For the compound `C=Cc1cnc(N2C(=O)C(C)=C(OC)C2O)cc1C(F)(F)F` (stereo not drawn) [AD27], the “ABUTH” value was 5, the “ALOMY” value amounted to 4, the “AMARE” value stood at 5 and the “ECHCG” value was determined as 5. Also, the “SETFA (Setaria faberi) damage score” value is listed as 4 and the “ZEAMX (Zea mays) damage score” value came out at 2.

As for `COC1=C(C)C(=O)N(c2cc(C(F)(F)F)c(C)cn2)C1O` (stereo not drawn) [AD28], the “ABUTH” value is reported as 5, the “ALOMY” value is 4, the “AMARE” value was 5 and the “ECHCG” value was determined as 5. Besides, the “SETFA (Setaria faberi) damage score” value came to 5 and the “ZEAMX (Zea mays) damage score” value came to 4.

With `COC1=C(C)C(=O)N(c2ncc(Br)c(C(F)(F)F)c2Br)C1O` (stereo not drawn) [AD29], the “ABUTH” value was 0, the “ALOMY” value worked out at 1, the “AMARE” value is 0 and the “ECHCG” value stood at 0. Besides, the “SETFA (Setaria faberi) damage score” value was 0 and the “ZEAMX (Zea mays) damage score” value was 1.

In the case of `COC1=C(C)C(=O)N(c2cc(C(F)(F)F)c(Cl)cn2)C1O` (stereo not drawn) [AD30], the “ABUTH” value is recorded as 5, the “ALOMY” value stood at 5, the “AMARE” value is 5 and the “ECHCG” value was determined as 5. For the same compound, the “SETFA (Setaria faberi) damage score” value came to 4 and the “ZEAMX (Zea mays) damage score” value was 1.

On to `COC1=C(C)C(=O)N(c2cc(C(F)(F)F)c(Br)cn2)C1O` (stereo not drawn) [AD31, 1-[5-bromo-4-(trifluoromethyl)-2-pyridyl]-2-hydroxy-3-methoxy-4-methyl-2H-pyrrol-5-one], for which the “ABUTH” value is recorded as 5, the “ALOMY” value was 5, the “AMARE” value is 5 and the “ECHCG” value was 5. In addition, the “SETFA (Setaria faberi) damage score” value was 4 and the “ZEAMX (Zea mays) damage score” value is reported as 1.

Take `C=Cc1ccc(N2C(=O)C(C)=C(OC)C2O)nc1` (stereo not drawn) [AD33]: the “ABUTH” value is listed as 2, the “ALOMY” value is 1, the “AMARE” value amounted to 1 and the “ECHCG” value was determined as 3. Besides, the “SETFA (Setaria faberi) damage score” value is 2 and the “ZEAMX (Zea mays) damage score” value was found to be 0.

As for `COC1=C(C)C(=O)N(c2cc(C(F)(F)F)ccn2)C1O` (stereo not drawn) [AD34], the “ABUTH” value worked out at 5, the “ALOMY” value worked out at 5, the “AMARE” value turned out to be 5 and the “ECHCG” value is 5. In addition, the “SETFA (Setaria faberi) damage score” value was 5 and the “ZEAMX (Zea mays) damage score” value turned out to be 0.

With `COC1=C(C)C(=O)N(c2ccc(C(F)(F)F)cn2)C1O` (stereo not drawn) [AD35], the “ALOMY” value stood at 3, the “AMARE” value came out at 5, the “ECHCG” value is on record as 3 and the “SETFA (Setaria faberi) damage score” value stood at 4. In addition, the “SOLNI (Solanum nigrum) damage score” value came out at 5 and the “ZEAMX (Zea mays) damage score” value was determined as 0.

As to `COC(=O)c1cnc(N2C(=O)C(C)=C(OC)C2O)cc1C(F)(F)F` (stereo not drawn) [AD37], the “ABUTH” value is recorded as 4, the “ALOMY” value came to 3, the “AMARE” value is 5 and the “ECHCG” value was 3. Besides, the “SETFA (Setaria faberi) damage score” value came to 2 and the “ZEAMX (Zea mays) damage score” value was 0.
